“Also recorded” adds a separate entry of the source.
Biological target: α-glucosidase from Saccharomyces cerevisiae (Saccharomyces cerevisiae, UniProt P53341)
Assay: α-glucosidase inhibition assay (pNPG substrate)
Type: biochemical
Conditions: yeast α-glucosidase; acarbose as positive control
Protocol: The α-glucosidase inhibition assay was performed according to a slightly modified, previously reported method; α-Glucosidase (0.1 U/mL) was dissolved in potassium phosphate buffer (pH 6.8) as the enzyme solution. The tested compounds (50 μL, 5 mM) dissolved in potassium phosphate buffer containing 3% DMSO were mixed with 50 μL of enzyme solution. After incubation at 37 °C for 10 min, a p-nitrophenyl-α-glucopyranoside (pNPG) solution (100 μL) (5.0 mM pNPG in 0.1 M potassium phosphate buffer (pH 6.8)) was added. The enzymatic reaction proceeded at 37 °C for 20 min and was terminated by the addition of 100 μL of 0.2 M Na2CO3. 4-nitrophenol absorption was immediately measured at 405 nm by using a microplate reader. The experiments were performed in triplicate.

α-glucosidase from Saccharomyces cerevisiae, sequence (P53341 whole entry): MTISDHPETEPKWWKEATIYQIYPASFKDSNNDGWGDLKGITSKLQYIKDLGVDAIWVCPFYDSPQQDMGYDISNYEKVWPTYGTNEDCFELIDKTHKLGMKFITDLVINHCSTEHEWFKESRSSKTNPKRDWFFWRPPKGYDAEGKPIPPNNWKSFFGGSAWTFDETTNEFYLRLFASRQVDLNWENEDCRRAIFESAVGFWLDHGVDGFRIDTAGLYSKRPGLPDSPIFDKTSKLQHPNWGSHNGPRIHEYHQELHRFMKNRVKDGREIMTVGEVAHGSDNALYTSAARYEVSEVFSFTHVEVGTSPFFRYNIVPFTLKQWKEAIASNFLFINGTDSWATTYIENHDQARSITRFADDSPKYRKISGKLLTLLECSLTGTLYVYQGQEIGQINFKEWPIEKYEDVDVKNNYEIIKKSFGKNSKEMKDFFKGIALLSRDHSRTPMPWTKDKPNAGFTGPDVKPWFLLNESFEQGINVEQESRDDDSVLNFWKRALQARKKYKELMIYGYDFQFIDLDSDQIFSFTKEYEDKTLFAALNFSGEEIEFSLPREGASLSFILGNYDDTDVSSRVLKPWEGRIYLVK

CC(=O)O[C@@]1(C)C[C@@H](OC(=O)C2=CO[C@@H](O[C@@H]3O[C@H](CO)[C@@H](O)[C@H](O)[C@H]3OC(=O)/C=C\c3ccc(O)cc3)[C@@H]3[C@H](C)CC[C@H]23)[C@@H]2C=CO[C@@H](O[C@@H]3O[C@H](CO)[C@@H](O)[C@H](O)[C@H]3O)[C@@H]21 [Compound 4, 2′′′-O-(Z)-p-coumaroyl caryocanoside B]
α-glucosidase inhibitory effect (in words): stronger inhibitory effects against α-glucosidase than the positive control; also recorded: potent effect

CC(CO)c1cc2c(c(O)c1O[C@@H]1O[C@H](CO)[C@@H](O)[C@H](O)[C@H]1O)[C@@]1(C)CCC[C@](C)(CO[C@@H]3O[C@H](CO)[C@@H](O)[C@H](O)[C@H]3O)[C@@H]1CC2 (some centres unmarked) [Compound 10, ajugaside A]
α-glucosidase inhibitory effect (in words): stronger inhibitory effects against α-glucosidase than the positive control

From publication PMC6273012, “New Iridoid Glucosides from Caryopteris incana (Thunb.) Miq. and Their α-Glucosidase Inhibitory Activities” (Molecules, 2016)
